Measured values reported in patent publication US20100203175A1, “DEGLYCATION OF AGEs” (BASF BEAUTY CARE SOLUTIONS FRANCE S.A.S., priority 2007, published 2010).

These compounds were tested against AGEs (bovine serum albumin (BSA) incubated with a reducing sugar) (Bos taurus, UniProt P02769) (assay: Reversion of the Maillard reaction: deglycation of AGEs prepared from bovine serum albumin and glucose, fluorescence read-out). Conditions: characterized molecules, in particular at 1×10^−1% in water or DMSO; about 50° C., 3 weeks; fluorescence with active principle versus positive control (15 mM aminoguanidine).
Sequence of AGEs (bovine serum albumin (BSA) incubated with a reducing sugar) (P02769 25-607): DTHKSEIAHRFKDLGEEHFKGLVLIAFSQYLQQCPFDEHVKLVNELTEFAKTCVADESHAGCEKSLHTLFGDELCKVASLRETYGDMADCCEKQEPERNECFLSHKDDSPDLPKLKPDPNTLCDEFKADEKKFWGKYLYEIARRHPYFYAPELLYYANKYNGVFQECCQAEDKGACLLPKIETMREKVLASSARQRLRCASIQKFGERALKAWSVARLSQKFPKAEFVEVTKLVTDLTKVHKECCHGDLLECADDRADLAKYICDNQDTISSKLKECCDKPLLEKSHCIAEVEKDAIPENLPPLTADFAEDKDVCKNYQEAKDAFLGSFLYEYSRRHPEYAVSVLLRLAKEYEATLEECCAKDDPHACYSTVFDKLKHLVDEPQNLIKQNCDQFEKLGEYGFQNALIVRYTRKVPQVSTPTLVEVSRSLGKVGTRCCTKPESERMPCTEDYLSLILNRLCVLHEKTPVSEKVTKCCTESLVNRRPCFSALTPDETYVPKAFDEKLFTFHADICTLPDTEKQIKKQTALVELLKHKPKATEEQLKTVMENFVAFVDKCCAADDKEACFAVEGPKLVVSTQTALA
Format: biochemical
Description: The preparation of a solution containing a protein and a reducing sugar was carried out extemporaneously as follows: a solution of bovine serum albumin (BSA) at a concentration between 1.5 μM and 1.5M, preferably between 15 μM and 500 μM was incubated with a solution of a reducing sugar such as glucose, fructose, etc., preferably with glucose at a concentration between 0.1M and 10M and preferably between 0.5M and 5M.
The incubation was maintained between 1 and 5 weeks, and preferably for 3 weeks.
The measure of inhibition of the AGEs was carried out by measuring the fluorescence (excitation wavelength between 350 and 375 nm, preferably at 355 nm; emission wavelength between 420 and 450 nm, preferably at 430 nm). The reversion of the Maillard reaction was calculated by comparing the fluorescence of AGEs set at 100% (maximum fluorescence) with the fluorescence of AGEs+active agent tested.
The preparation of a protein/reducing sugar solution was carried out according to the method described in Example 1 (paragraph 1).
The preparation of a solution of protein/reducing sugar was carried out according to the method described in Example 1 (paragraph 1). […]

% deglycation | Structure (SMILES)
100% | Oc1cc(O)c2c(c1)O[C@@H](c1ccc(O)c(O)c1)[C@H](O)C2 (relative stereo) [trans-3,3′,4′,5,7-Pentahydroxyflavane]
100% | Oc1cc(O)cc(O)c1 [1,3,5-Trihydroxybenzene (phloroglucinol), 1,3,5-Trihydroxybenzene]
97% | O=c1cc(CO)occ1O [2-Hydroxymethyl-5-hydroxy-γ-pyrone]
88% | O=C(O)C=Cc1ccc(O)c(O)c1 [3,4-Dihydroxycinnamic acid]
100% | O=C(O)Cc1ccc(O)c(O)c1 [3,4-Dihydroxyphenylacetic acid (DOPAC), 3,4-Dihydroxyphenylacetic acid]
100% | COc1cc(C=CC(=O)O)cc(OC)c1O [3,5-Dimethoxy-4-hydroxycinnamic acid]
100% | Cc1c(C)c2c(c(C)c1O)CCC(C)(C(=O)O)O2 (centres unmarked) [6-Hydroxy-2,5,7,8-tetramethylchromane-2-carboxylic acid]
100% | Cc1cn2c(=O)c3ccccc3nc2n2c(=O)c3ccccc3nc12 [6-Methyl-5,7a,13,13b-tetraazapentaphene-8,14-dione]
100% | Cc1cc(C)c2c(c1O)C(=O)OC2 [7-Hydroxy-4,6-dimethyl phthalide]
100% | Oc1ccc2cc[nH]c2c1 [Indole alcohol amine II, 6-Hydroxyindole]
100% | CC(Cc1ccc(O)c(O)c1)C(C)Cc1ccc(O)c(O)c1 (centres unmarked) [Nordihydroguaiaretic acid]
100% | O=C1Cc2ccccc2N1 [Oxindole]

Structure (SMILES) | % deglycation
Nc1ccc(O)cc1 [4-Aminophenol] | 100%
CNC(=O)Oc1ccc2c(c1)[C@]1(C)CCN(C)[C@@H]1N2C [Physostigmine] | 87%
